Reference: ChEMBL document CHEMBL3877297, “Chemical exploration of 4-(4-fluorobenzyl)piperidine fragment for the development of new tyrosinase inhibitors” (Eur J Med Chem, 2017)
Calls of active or inactive are those of the source. The calls are words filed in the database; no cut-off is given here.

Assays:
Mushroom tyrosinase [1] = biological target: T1, Mushroom tyrosinase (Agaricus bisporus, UniProt O42713+Q00024+C7FF04+C7FF05); test: Inhibition of mushroom tyrosinase monophenolase activity using L-tyrosine as substrate measured after 30 mins
Mushroom tyrosinase [2] = biological target: T1, Mushroom tyrosinase; test: Inhibition of mushroom tyrosinase diphenolase activity using L-DOPA as substrate measured after 5 mins
[3] = biological target: T2, Mushroom tyrosinase (Agaricus bisporus) (UniProt O42713+Q00024+C7FF04+C7FF05); test: Potency index, ratio of 3-(4-benzylpiperidin-1-yl)-1-(1H-indol-3-yl)propan-1-one IC50 to compound IC50 for mushroom tyrosinase monophenolase activity
[4] = biological target: T2, Mushroom tyrosinase (Agaricus bisporus); test: Potency index, ratio of 3-(4-benzylpiperidin-1-yl)-1-(1H-indol-3-yl)propan-1-one IC50 to compound IC50 for mushroom tyrosinase diphenolase activity
[5] = biological target: T2, Mushroom tyrosinase (Agaricus bisporus); test: Non-competitive inhibition of mushroom tyrosinase diphenolase activity at 4 to 16 uM using varying levels of L-DOPA as substrate by Lineweaver-Burk plot analysis
Mushroom tyrosinase [6] = biological target: T1, Mushroom tyrosinase; test: Inhibition of mushroom tyrosinase assessed as reduction in formation of dopachrome using L-DOPA as substrate
[7] = biological target: T2, Mushroom tyrosinase (Agaricus bisporus); test: Mixed-type inhibition of mushroom tyrosinase diphenolase activity at 4 to 16 uM using varying levels of L-DOPA as substrate by Lineweaver-Burk plot analysis
[8] = biological target: T2, Mushroom tyrosinase (Agaricus bisporus); test: Non-competitive inhibition of mushroom tyrosinase diphenolase activity at 25 to 100 uM using varying levels of L-DOPA as substrate by Lineweaver-Burk plot analysis

Row | SMILES | IC50 (Mushroom tyrosinase [1]) [µM] | IC50 (Mushroom tyrosinase [2]) [µM] | further results
1 | COc1ccc2c(C(=O)CCN3CCC(Cc4ccc(F)cc4)CC3)c[nH]c2c1 | 9.4 | 18.03 | Ratio IC50 [4]: < 35; inhibition [5]: Active
2 | COc1cccc2c1c(C(=O)C(=O)Nc1cn[nH]n1)cn2Cc1ccc(F)cc1 | – | – | IC50 (Mushroom tyrosinase [6]): 372 µM
3 | COc1ccc2[nH]cc(C(=O)CCN3CCC(Cc4ccc(F)cc4)CC3)c2c1 | 7.86 | 14.15 | Ratio IC50 [4]: < 35; inhibition [5]: Active
4 | COc1cc2[nH]cc(C(=O)CCN3CCC(Cc4ccc(F)cc4)CC3)c2cc1OC | 5.11 | 7.56 | Ratio IC50 [4]: < 35; inhibition [7]: Active
5 | COc1cccc2c1c(C(=O)/C=C(\O)C(=O)O)cn2Cc1ccc(F)cc1 | – | – | IC50 (Mushroom tyrosinase [6]): 224 µM
6 | COc1cc2[nH]cc(C(=O)CCN3CCC(Cc4ccccc4)CC3)c2cc1OC | 57.24 | 133 | –
7 | CCN1CCC(Cc2ccc(F)cc2)CC1 | 32.17 | 116 | –

Continued, in another order:

Row | IC50 (Mushroom tyrosinase [1]) [µM] | IC50 (Mushroom tyrosinase [2]) [µM] | SMILES | further results
8 | 25.78 | 197.45 | COc1ccc2[nH]cc(C(=O)CCN3CCC(Cc4ccccc4)CC3)c2c1 | Ratio IC50 [3]: 7
9 | 175 | 252 | O=C(CCN1CCC(Cc2ccccc2)CC1)c1c[nH]c2ccccc12 | –
10 | 9.45 | 8.82 | O=C(CCN1CCC(Cc2ccc(F)cc2)CC1)c1c[nH]c2ccccc12 | Ratio IC50 [4]: < 35; inhibition [5]: Active
11 | 5.87 | 39.58 | O=C(CCN1CCC(Cc2ccc(F)cc2)CC1)Nc1cc[nH]n1 | –
12 | 113.34 | 159.24 | O=C(CCN1CCC(Cc2ccc(F)cc2)CC1)n1cnc2ccccc21 | –
13 | 28.85 | 27.9 | O=C(CCN1CCC(Cc2ccc(F)cc2)CC1)Nc1ccccc1 | inhibition [8]: Active
14 | 28.55 | 110.95 | Cc1cc(NC(=O)CCN2CCC(Cc3ccc(F)cc3)CC2)on1 | –
15 | 13.98 | 83 | O=C(CCN1CCC(Cc2ccc(F)cc2)CC1)NCc1ccccc1 | –
16 | 67.25 | 168.55 | COc1ccc2c(C(=O)CCN3CCC(Cc4ccccc4)CC3)c[nH]c2c1 | –
